Entries after “also recorded” stand apart in the source; their conditions may differ.
Tests used:
healthy volunteers [1] = experiment: Diuretic effects on urinary excretion of Na+, K+, Mg2+ and Ca2+ in healthy volunteers (monotherapy and combinations); type: in vivo, human; conditions: for total K+ excretion, monotherapy: usual doses, 0-24 hrs and sub-periods, FIG. 2b; for Na+ excretion during the first 3 hrs, monotherapy: 10 mg TORA, 25 mg HCT, 50 mg TA
Description: (§1) The ethically approved trial was performed on 12 healthy volunteers (28-48years in age, 6 males, 6 females), who had given their written informed consent to the study. Prior to administration of a drug, the participants underwent a clinical check-up. The participants were kept on a standard diet, receiving a defined fluid (1.5 l/day) and salt intake (6 g NaCl; 100 mmol Na^+/day) three days before and throughout the study.
From that point of time, urine was collected following drug administration in 2 hour intervals until the 6th hour and then from the 6th to 9th hour, from the 9th to 12th hour and from the 12th to […]. An aliquot of the defined volume of the respective collection period was frozen until analyzed for Na^+, K^+, Cl^−, Ca^2+ Mg^2+ and creatinine using a “MODULAR” Analyzer (Roche Comp., Switzerland).
(§2) All data are expressed as mean values (±SEM). The diuretic-induced “net excretion” is defined as the difference between total excretion and control excretion (“baseline”) obtained for the respective period prior to treatment. The effect of diuretic monotherapy is compared with the combined treatment using ANOVA.

healthy volunteers [2] = experiment: Dose-response studies of natriuretic effect in healthy volunteers; type: in vivo, human; conditions: for range of linear dose-responsiveness of natriuretic effect / dose at which the maximum natriuretic effect is reached: FIG. 1; for dose at which the maximum natriuretic effect is reached: net Na+ excretion for the duration of action, oral; for duration of action (time until baseline excretion is reached again): oral single dose
Description: as §1
In accordance with earlier studies (35), urine was collected before the treatment period, i.e., from 24 hrs to 12 hrs and from 12 hrs to 0 hrs prior to oral drug administration (8 a.m.). From that point of time, urine was collected following drug administration in 2 hour intervals until the 6th hour and then from the 6th to 9th hour, from the 9th to 12th hour and from the 12th to […]. An aliquot of the defined volume of the respective collection period was frozen until analyzed for Na^+, K^+, Cl^−, Ca^2+ Mg^2+ and creatinine using a “MODULAR” Analyzer (Roche Comp., Switzerland).
as §2

Compound	total K+ excretion, monotherapy (healthy volunteers [1])	range of linear dose-responsiveness of natriuretic effect (healthy volunteers [2])	dose at which the maximum natriuretic effect is reached (healthy volunteers [2])	Na+ excretion during the 6-12 hrs and 12-24 hrs periods (rebound) (healthy volunteers [1]; 10 mg TORA monotherapy, FIG. 2a)	Na+ excretion during the first 3 hrs, monotherapy (healthy volunteers [1]; FIG. 2a)	K+/Na+ excretion ratio 6-24 hrs, monotherapy (healthy volunteers [1]; after the duration of action, Na+ excretion below baseline, FIG. 2c)	Mg2+ excretion, monotherapy (healthy volunteers [1]; loop diuretic versus thiazide, FIG. 3)	Ca2+ excretion in relation to Na+ excretion, monotherapy (healthy volunteers [1]; loop diuretic versus thiazide, FIG. 2d)	duration of action (time until baseline excretion is reached again) (healthy volunteers [2])	K+ excretion correlated with Na+ excretion (K+/Na+ ratio), 0-12 hrs (healthy volunteers [1]; 0-12 hrs, HCT alone versus HCT with 5 mg TORA, p<0.01)	K+ excretion correlated with Na+ excretion (K+/Na+ ratio), 0-24 hrs (healthy volunteers [1]; 0-24 hrs, HCT alone versus HCT with 5 mg TORA, p<0.01)	K+/Na+ excretion ratio within the first three hours, monotherapy (healthy volunteers [1]; FIG. 2c)	cumulative Na+ excretion induced by 25 mg compared with 50 mg (healthy volunteers [2]; during 12 hrs (time until baseline excretion is reached again))
Nc1nc(N)c2nc(-c3ccccc3)c(N)nc2n1 [TA, triamterene]	less K^+ loss than HCT or TORA only for the 0-3 hrs period; also recorded: not superior to the loop diuretic	narrow range of almost linear dose-responsiveness	50 mg										
Cc1cccc(Nc2ccncc2S(=O)(=O)NC(=O)NC(C)C)c1 [TORA, torasemide]		broader range of linear dose-responsiveness		dropped below levels prior to drug administration	by far in the highest increase of Na excretion	highest only after the duration of action of the loop diuretic	less magnesiuretic than the thiazide	higher for the loop diuretic than for the thiazide	6 h				
NS(=O)(=O)c1cc2c(cc1Cl)NCNS2(=O)=O [HCT, hydrochlorothiazide]	higher than that following administration of the loop diuretic	narrow range of almost linear dose-responsiveness	25 mg		higher Na^+ excretion than TA only during the first 3 hrs				12 h	0.40	0.43	nearly triple of that of the loop diuretic	not significantly different

From patent US20090023714A1, “COMBINED PREPARATION OF A THIAZIDE DIURETIC AND A LOOP DIURETIC” (HEXAL AG, priority 2005, published 2009)
